The values that follow come from patent US5229265A, “Process for analyzing clastogenic agents” (Litron Laboratories, priority 1990, dated 1993).

Series [1] concerns micronucleated cells in blood. Kind of series: Effects of bleeding on the sensitivity of the micronucleus assay, MMS. The format is in vivo, mouse. The conditions noted are these: for MNs in 96 hr blood, MMS(D): MMS 100 μg/g body wt at 0 and 48 hrs; for Increase in MNs (D - C): MMS minus saline means. The source says:
Earlier, it was pointed out that obtaining an initial blood sample (t=0) provides an important background measurement of the number of micronucleii in each mouse. Obtaining an initial blood sample also increases the sensitivity of the assay, due to the stimulation of the stem cells to replenish the lost blood. Clastogen action should be increased if cells are actively turning over, rather than subsisting in a quiscent state. In the absence of bleeding, new PCEs are introduced into the blood cells at a low steady state level and MNs are introduced at a spontaneous background level. […] Practioners in the art are unaware of this increase in sensitivity due to initial bleeding. […] In this experiment, control mice were dosed with 0.9% saline, whereas treated mice received MMS (100 μg/g body wt.) at 0 hr and at 48 hrs. The first set of mice (the L series) were not bleed prior to obtaining a 96 hour blood sample. The MN-cell level resulting from MMS treatment would reflect the probability of clastogen action in the steady state stem cell turnover rate. The second set of mice (the M series) were bleed 166 hrs prior to the initial clastogen dose. In this set, the minus 166 hr bleeding will cause stem cell proliferation and differentiation, but the system should begin to return to steady state once the blood is replenished. The third set (the K series) was bleed at t=0hr where upon dosing was initiated, and a final blood sample was obtained at t=96 hrs.
Since the L series was not initially bleed, the initial blood samples were not used in the analysis of the M or K series for equal comparison with L. Rather, only the 96 hour blood samples were analyzed in each set. The difference, D, between the saline controls and the dosed mice should reflect the level of turnover of the stem cells and the suseptibility of said cells to clastogen action in each case. […] Although the M series had 166 hrs to recover from the initial bleeding before being dosed with MMS, the stem cells still appear to be fairly active, and an intermediate level of micronucleated cells was obtained (i.e. 513 events above background). Finally, the highest activity was obtained with the K-series wherein the mice were bleed and immediately dosed. In this case, the stem cells are turning over at a high rate to replenish the blood at a time when the concentration of MMS is also high. […] The results in Tables 2 and 4 provide additional experimental evidence that bleeding stimulates stem cell proliferation and differentiation. […] This increase in sensitivity could be particularly important in cases where a week clastogen is being investigated.

For series [2], the system named is micronucleated cells in blood. Description: Cyclophosphamide dose response, flow cytometric micronucleus assay. The format is in vivo, mouse. On the procedure:
However, an effective flow cytometry based micronulceus assay should also be able to reflect changes in the number of MN-cells at different doses of a clastogen. Accordingly, another example of this embodiment involves a cyclophosphamide dose response analysis. Ten mice were divided into sets of two for this experiment. An initial blood sample was taken (t=0hr) for each mouse. The two control mice were dosed with saline while the other sets received different doses of cyclophosphamide (50,100,150 or 200 μg/g body weight). Each set was treated twice, at t=0 and t=48 hrs. Final blood samples were obtained at t=96hrs, and were fixed and stained with Hoechst 33258 to which PC microspheres had been added. The position of the microsphere peak was initially calibrated using the malaria infected RBCs as the primary standard. Each sample was then checked to insure that the microsphere peak was still at the calibrated position before acquisition. Some slight adjustments were necessary in the gains during the course of the analysis, during which ten t=0 samples and ten t=96 samples were run. One million total cells were counted for each sample. Gates were set on forward scatter (e.g. FIG. 3), side scatter (before the major cell peak), and a red gate (e.g. as shown in FIG. 13). These gates insured that only red blood cells and their associated micronuclei would be acquired. Following acquisition, the number of micronucleated cells at t=0 were subtracted from the number at t=96hr for each mouse. The average for the saline controls were slightly negative, and were recorded as zero in this graph. […] In addition, the high doses were approaching 1500 events more than the zero (control) values. […] For comparison, the 96hr samples were also hand counted and the number of MNs/1000 PCEs were determined.

The mark [3] stands for this setting: K Series: initial bleeding at t = 0.
Setting [4] is: M Series: initial bleeding at -166 hr.

SMILES strings stand for the structures. “And” between values parts separate entries of the source, which are not always exact repeats. Identical values can stand only once. “Also recorded” adds a separate entry of the source.

On to `COS(C)(=O)=O` [MMS, methyl methanesulfonate], for which the “MNs in 96 hr blood, MMS(D)” value is 1829 and 1794 and 1812 in series [1] (setting [3]); 1352 and 1390 and 1331 and 1357 ± 30 in series [1] (L Series: no initial bleeding); 1776 and 1541 and 1673 and 1663 ± 118 in series [1] (setting [4]). Besides, the “Increase in MNs (D - C)” value was determined as 777 in series [1] (setting [3]), 314 in series [1] (L Series: no initial bleeding) and 513 in series [1] (setting [4]).

For the molecule `O=P1(N(CCCl)CCCl)NCCCO1` (stereo not drawn) [cyclophosphamide], in series [2] (cyclophosphamide 50, 100, 150 or 200 μg/g body weight at t=0 and t=48 hrs), the “dose response” value is “dose response relationship is evident; also recorded: good dose response relationship is obtained”. Also, in series [2] (cyclophosphamide, lower doses, FIG. 14), the “clastogenic action at the lower doses” value is listed as “data at the lower doses clearly supports the conclusion that clastogenic action was present”. Also, in series [2] (high doses of cyclophosphamide (50-200 μg/g body weight tested) at t=0 and t=48 hrs, one million total cells), the “increase in MN events over zero (control) values” is around 1500 events.
